PMC6112376, “Comprehensive Analyses and Prioritization of Tox21 10K Chemicals Affecting Mitochondrial Function by in-Depth Mechanistic Studies” (Environmental Health Perspectives, 2018)
Structures can show the parent of a compound that is named as a salt. Where two headings read alike, the source gives them in different places.

What was measured:
[1] = system: rat primary hepatocytes
[2] = system: HepG2 cells; conditions: cited from earlier work; for IC50: read-out: MMP assays IC50 (µM) qHTS-HepG2
[3] = system: HepG2 cells; conditions: for IC50: read-out: MMP assays IC50 (µM) HepG2
[4] = system: rat primary hepatocytes; experiment: MMP assay in rat primary hepatocytes; conditions: for IC50: read-out: MMP assays IC50 (µM) Rat Hepatocytes
[5] = HepG2 cells, single number from one experiment

| SMILES | MMP assays efficacy (%) Rat Hepatocytes [1] | MMP assays efficacy (%) qHTS-HepG2 [2] | IC50 [2] [µM] | MMP assays efficacy (%) HepG2 [3] | IC50 [3] [µM] | IC50 [4] [µM] | MMP assays IC50 (µM) HepG2 [3] | MMP assays IC50 (µM) Rat Hepatocytes [4] | MMP assays efficacy (%) HepG2 [3, 5] [%] | IC50 [3, 5] [µM] | IC50 ([4]; rat hepatocytes, mean ± SD of three experiments) [µM] | MMP assays IC50 (µM) qHTS-HepG2 [2] | IC50 ([4]; Rattus norvegicus, Hepatocyte) [µM] |
| --- | --- | --- | --- | --- | --- | --- | --- | --- | --- | --- | --- | --- | --- |
| CC(C)C[C@H]1C(=O)N2CCC[C@H]2[C@]2(O)O[C@](NC(=O)[C@@H]3C=C4c5cccc6[nH]c(Br)c(c56)C[C@H]4N(C)C3)(C(C)C)C(=O)N12 [Bromocriptine mesylate] | -74±34% | -111±8% | 11.2 ± 2.78 | -113% | 13.5 | 12.6 ± 1.6 |  |  |  |  |  |  |  |
| CC(C)(C)c1ccc(CN2CCN(C(c3ccccc3)c3ccc(Cl)cc3)CC2)cc1.Cl.Cl (stereo not shown) [Buclizine dihydrochloride] | inactive | -52±10% | 32.2 ± 2.1 | inactive |  |  | inactive | inactive |  |  |  |  |  |
| Cl.Nc1ccc(/N=N/c2ccccc2)c(N)c1 [C.I. Basic orange 2] | -34±7% | -82±19% | 7.53 ± 5.61 |  |  |  |  |  | -113 | 19.9 | 24.9 ± 21.1 |  |  |
| Oc1ccc2ccccc2c1N=Nc1ccccc1 [C.I. Solvent yellow 14] | -86±4% | -69±8% | 5.84 ± 2.06 | -110% | 15.8 | 17 ± 10.6 |  |  |  |  |  |  |  |
| O=C1OC(=O)C2C1C1(Cl)C(Cl)=C(Cl)C2(Cl)C1(Cl)Cl (stereo not shown) [Chlorendic anhydride] | inactive | inactive |  | inactive |  |  | inactive | inactive |  |  |  | inactive |  |
| CC1(COc2ccc(CC3SC(=O)NC3=O)cc2)CCCCC1 (stereo not shown) [Ciglitizone] | -84±44% | -106±9% | 8.22 ± 1.6 | -97% | 14.1 | 9.92 ± 4.25 |  |  |  |  |  |  |  |
| O=[N+]([O-])c1cccc2ccccc12 [Compound 1-Nitronaphthalene] | -54±17% | -40±7% | 59.7 ± 7.06 | inactive |  |  | inactive |  |  |  |  |  | 45.9 ± 14.7 |
| COc1ccc(O)c(C(C)(C)C)c1 [Compound 2-tert-Butyl-4-methoxyphenol] | -53±11% | -92±3% | 25.3 ± 1.71 |  | 35.5 | 36.5 ± 19.2 |  |  |  |  |  |  |  |
| Nc1cccc(O)c1 [Compound 3-Aminophenol] | inactive | inactive |  | inactive |  |  | inactive | inactive |  |  |  | inactive |  |
| O=[N+]([O-])c1ccc2nc[nH]c2c1 [Compound 6-Nitrobenzimidazole] | inactive | -53±6% | 36.4 ± 10.8 | inactive |  |  | inactive | inactive |  |  |  |  |  |
| O=[N+]([O-])c1ccc2ncccc2c1 [Compound 6-Nitroquinoline] | -29±7% | -51±5% | 30.7 ± 11.5 | inactive |  |  | inactive |  |  |  |  |  | 44.8 ± 16.3 |
| N#Cc1c2ccccc2cc2ccccc12 [Compound 9-Cyanoanthracene] | -32±6% | -74±32% | 6.85 ± 18.1 | inactive |  |  | inactive |  |  |  |  |  | 18 ± 5.46 |
| Oc1cc2ccccc2c2ccccc12 [Compound 9-Phenanthrol] | -94±31% | -101±8% | 1.22 ± 0.56 | -101% | 3.55 | 47.3 ± 10.7 |  |  |  |  |  |  |  |
| CSc1nc(NC2CC2)nc(NC(C)(C)C)n1 [Cybutryne] | -69±43% | -81±18% | 20.9 ± 13.9 | inactive |  | 14.3 ± 16 | inactive |  |  |  |  |  |  |
| CC1(C)C(/C=C(\Cl)C(F)(F)F)C1C(=O)OC(C#N)c1cccc(Oc2ccccc2)c1 (stereo not shown) [Cyhalothrin] | -55±25% | -73±14% | 33.6 ± 5.79 | inactive |  |  | inactive |  |  |  |  |  | 33.8 ± 9.96 |
| CCCCCCCCCCCC(=O)[O][Sn]([CH2]CCC)([CH2]CCC)[O]C(=O)CCCCCCCCCCC [Dibutyltin dilaurate] | -52+36% | inactive |  | -86% | 27.5 | 22.4 ± 7.17 |  |  |  |  |  | inactive |  |
| COc1ccc2c(=O)c(C)c(-c3ccccc3)oc2c1CN(C)C.Cl [Dimefline hydrochloride] | inactive | inactive |  | inactive |  |  | inactive | inactive |  |  |  | inactive |  |
| CCN1\C(=C/C=C/C=C/c2sc3ccccc3[n+]2CC)Sc2ccccc21.[Cl-] [Dithiazanine chloride] | -77±9% | -56±6% | 0.27 | -79% | 0.15 | 2.45 |  |  |  |  |  |  |  |
| Cc1ccc(-n2nc(C(C)(C)C)cc2NC(=O)Nc2ccc(OCCN3CCOCC3)c3ccccc23)cc1 [Doramapimod;BIBR-796?] | -77±5% |  | 21.1 ± 5.52 | -69% | 21.8 | 24.1 ± 9.54 |  |  |  |  |  |  |  |
| CN1C[C@H](C(=O)N[C@]2(C)O[C@@]3(O)[C@@H]4CCCN4C(=O)[C@H](Cc4ccccc4)N3C2=O)C=C2c3cccc4[nH]cc(c34)C[C@H]21 [Ergotamine D-tartrate] | inactive | -54±10% | 7.55 ± 1.06 | inactive |  |  | inactive | inactive |  |  |  |  |  |
| C[C@]12CC[C@@H]3c4ccc(O)cc4CC[C@H]3[C@@H]1CC[C@@H]2OP(=O)(O)O [Estradiol phosphate] | inactive | inactive |  | inactive |  |  | inactive | inactive |  |  |  | inactive |  |
| CC(=O)OCC(=O)[C@@]12OC(C)(C)O[C@@H]1C[C@H]1[C@@H]3C[C@H](F)C4=CC(=O)C=C[C@]4(C)[C@@]3(F)[C@@H](O)C[C@@]12C [Fluocinonide] | inactive | inactive |  | inactive |  |  | inactive | inactive |  |  |  | inactive |  |
